pEC50: −log10 of the molar value.
Target: T1, human GLP-1 receptor (Homo sapiens, UniProt P43220)
T1 construct: expressed in transfected cells
Experiment: GLP-1R cAMP assay (cAMP accumulation in CHO cells stably overexpressing the human GLP-1 receptor, HitHunter kit)
Type: cell-based
Details: CHO cells stably overexpressing human GLP-1R, 30 min, 20-point dose response in triplicate
Protocol: CAMP accumulation was measured in Chinese hamster ovary (CHO) cells (10,000 cells/well) stably overexpressing the human GLP-1 receptor using the HitHunter CAMP Assay for Small Molecules Kit (Eurofins). Briefly, cells were grown in Ham's F12 Nutrient Mix with 10% FBS, and lifted with Cell Dissociation Buffer, Enzyme free, PBS based (ThermoFisher). Cells were pelleted, and resuspended in Hank's buffered saline solution with 10 mM HEPES, and 625 μM 3-isobutyl-1-methylxanthine. The anti-cAMP antibody reagent was then added to cells at a 1:2 ratio and 5 μL of mixture was seeded in 384-well small volume white assay plates, at 10,000 cells/well. Cells were then treated with 50 nL compound using an ECHO 550 acoustic dispenser (Labcyte) in a 20-point dose response format in triplicate for 30 min. Cells were then lysed, and detection reagents added according to the manufacturer's protocol. After overnight incubation, luminescence was measured using a Perkin Elmer Envision plate reader. Dose response curves were analyzed using GraphPad Prism 9.0.
In the Table, EC50 values are designated as follows: • A: 0 nM<EC50<0.1 nM; • B: 0.1 nM≤EC50<1.0 nM; • C: 1.0 nM≤EC50<10.0 nM; • D: 10.0 nM≤EC50<100 nM; • E: 100 nM≤EC50<500 nM; and • F: ≥500 nM

T1 sequence (P43220 24-463): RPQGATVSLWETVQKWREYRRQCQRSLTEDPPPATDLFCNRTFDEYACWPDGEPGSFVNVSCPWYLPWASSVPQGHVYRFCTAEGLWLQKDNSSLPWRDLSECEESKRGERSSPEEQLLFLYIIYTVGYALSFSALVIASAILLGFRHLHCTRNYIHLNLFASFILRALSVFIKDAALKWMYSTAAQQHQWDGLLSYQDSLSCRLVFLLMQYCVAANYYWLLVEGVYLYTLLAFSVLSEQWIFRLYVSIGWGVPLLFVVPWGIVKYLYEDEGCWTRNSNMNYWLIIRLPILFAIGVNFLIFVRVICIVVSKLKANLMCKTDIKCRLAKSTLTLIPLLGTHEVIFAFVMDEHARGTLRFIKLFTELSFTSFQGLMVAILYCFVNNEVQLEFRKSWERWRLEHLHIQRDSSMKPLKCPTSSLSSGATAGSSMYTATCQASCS

Row | SMILES | pEC50
1 | C[C@H]1C[C@@H](Oc2ccnc(COc3ccc(F)cc3F)n2)CCN1Cc1nc2ccc(C(=O)O)cc2n1CC1CCC1 [Compound 590, 1-(Cyclobutylmethyl)-2-{[(2S,4S)-4-({2-[(2,4-difluorophenoxy)methyl]pyrimidin-4-yl}oxy)-2-methylpiperidin-1-yl]methyl}-1H-1,3-benzodiazole-6-carboxylic acid] | 9.00 to 10.00
2 | C[C@@H](Cn1c(CN2CC[C@H](Oc3ccnc(COc4ccc(F)cc4F)n3)C[C@@H]2C)nc2ccc(C(=O)O)cc21)OC(F)F [Compound 591, 1-[(2S)-2-(Difluoromethoxy)propyl]-2-{[(2S,4S)-4-({2-[(2,4-difluorophenoxy)methyl]pyrimidin-4-yl}oxy)-2-methylpiperidin-1-yl]methyl}-1H-1,3-benzodiazole-6-carboxylic acid] | 9.00 to 10.00
3 | C[C@H](Cn1c(CN2CC[C@H](Oc3ccnc(COc4ccc(F)cc4F)n3)C[C@@H]2C)nc2ccc(C(=O)O)cc21)OC(F)F [Compound 592, 1-[(2R)-2-(Difluoromethoxy)propyl]-2-{[(2S,4S)-4-({2-[(2,4-difluorophenoxy)methyl]pyrimidin-4-yl}oxy)-2-methylpiperidin-1-yl]methyl}-1H-1,3-benzodiazole-6-carboxylic acid] | > 10.00
4 | C[C@H](Cn1c(CN2CC[C@H](Oc3ccnc(COc4ccc(F)cc4F)n3)C[C@@H]2C)nc2ccc(C(=O)O)cc21)OCC(F)(F)F [Compound 594, 2-{[(2S,4S)-4-({2-[(2,4-Difluorophenoxy)methyl]pyrimidin-4-yl}oxy)-2-methylpiperidin-1-yl]methyl}-1-[(2R)-2-(2,2,2-trifluoroethoxy)propyl]-1H-1,3-benzodiazole-6-carboxylic acid] | 8.00 to 9.00
5 | C[C@H]1C[C@@H](Oc2ccnc(COc3ncc(Cl)cc3F)n2)CCN1Cc1nc2ccc(C(=O)O)cc2n1CCOCC(F)(F)F [Compound 595, 2-{[(2S,4S)-4-[(2-{[(5-chloro-3-fluoropyridin-2-yl)oxy]methyl}pyrimidin-4-yl)oxy]-2-methylpiperidin-1-yl]methyl}-1-[2-(2,2,2-trifluoroethoxy)ethyl]-1H-1,3-benzodiazole-6-carboxylic acid] | 9.00 to 10.00
6 | C[C@H]1C[C@@H](Oc2ccnc(COc3ccc(C#N)cc3F)n2)CCN1Cc1nc2ccc(C(=O)O)cc2n1CCOCC(F)(F)F [Compound 596, 2-{[(2S,4S)-4-({2-[(4-Cyano-2-fluorophenoxy)methyl]pyrimidin-4-yl}oxy)-2-methylpiperidin-1-yl]methyl}-1-[2-(2,2,2-trifluoroethoxy)ethyl]-1H-1,3-benzodiazole-6-carboxylic acid] | > 10.00
7 | C[C@H]1C[C@@H](Oc2ccnc(COc3ncc(Cl)cc3F)n2)CCN1Cc1nc2c(F)cc(C(=O)O)cc2n1C[C@@H]1CCO1 [Compound 597, 2-{[(2S,4S)-4-[(2-{[(5-Chloro-3-fluoropyridin-2-yl)oxy]methyl}pyrimidin-4-yl)oxy]-2-methylpiperidin-1-yl]methyl}-4-fluoro-1-{[(2S)-oxetan-2-yl]methyl}-1H-1,3-benzodiazole-6-carboxylic acid] | > 10.00
8 | C[C@@H](Cn1c(CN2CC[C@H](Oc3ccnc(COc4ccc(F)cc4F)n3)C[C@@H]2C)nc2ccc(C(=O)O)cc21)OCC(F)(F)F [Compound 598, 2-{[(2S,4S)-4-({2-[(2,4-Difluorophenoxy)methyl]pyrimidin-4-yl}oxy)-2-methylpiperidin-1-yl]methyl}-1-[(2S)-2-(2,2,2-trifluoroethoxy)propyl]-1H-1,3-benzodiazole-6-carboxylic acid] | 9.00 to 10.00
9 | N#Cc1ccc(OCc2nccc(O[C@H]3CCN(Cc4nc5ccc(C(=O)O)cc5n4C[C@@H]4CCO4)[C@@H](C(F)(F)F)C3)n2)c(F)c1 [Compound 599, 2-{[(2R,4S)-4-({2-[(4-cyano-2-fluorophenoxy)methyl]pyrimidin-4-yl}oxy)-2-(trifluoromethyl)piperidin-1-yl]methyl}-1-{[(2S)-oxetan-2-yl]methyl}-1H-1,3-benzodiazole-6-carboxylic acid] | 9.00 to 10.00
10 | COC1(Cn2c(CN3CC[C@H](Oc4ccnc(COc5ccc(F)cc5F)n4)C[C@@H]3C)nc3ccc(C(=O)O)cc32)CCC1 [Compound 600, 2-{[(2S,4S)-4-({2-[(2,4-Difluorophenoxy)methyl]pyrimidin-4-yl}oxy)-2-methylpiperidin-1-yl]methyl}-1-[(1-methoxycyclobutyl)methyl]-1H-1,3-benzodiazole-6-carboxylic acid] | 9.00 to 10.00
11 | C[C@H]1C[C@@H](Oc2ccnc(COc3ccc(F)cc3C#N)n2)CCN1Cc1nc2ccc(C(=O)O)cc2n1CCOCC(F)(F)F [Compound 601, 2-{[(2S,4S)-4-({2-[(2-cyano-4-fluorophenoxy)methyl]pyrimidin-4-yl}oxy)-2-methylpiperidin-1-yl]methyl}-1-[2-(2,2,2-trifluoroethoxy)ethyl]-1H-1,3-benzodiazole-6-carboxylic acid] | > 10.00
12 | C[C@H](Cn1c(CN2CC[C@H](Oc3ccnc(COc4ncc(Cl)cc4F)n3)C[C@@H]2C)nc2ccc(C(=O)O)cc21)OC(F)F [Compound 602, 2-{[(2S,4S)-4-[(2-{[(5-Chloro-3-fluoropyridin-2-yl)oxy]methyl}pyrimidin-4-yl)oxy]-2-methylpiperidin-1-yl]methyl}-1-[(2R)-2-(difluoromethoxy)propyl]-1H-1,3-benzodiazole-6-carboxylic acid] | 9.00 to 10.00
13 | C[C@H]1C[C@@H](Oc2ccnc(COc3ccc(Cl)cn3)n2)CCN1Cc1nc2c(F)cc(C(=O)O)cc2n1C[C@@H]1CCO1 [Compound 603, 2-{[(2S,4S)-4-[(2-{[(5-Chloropyridin-2-yl)oxy]methyl}pyrimidin-4-yl)oxy]-2-methylpiperidin-1-yl]methyl}-4-fluoro-1-{[(2S)-oxetan-2-yl]methyl}-1H-1,3-benzodiazole-6-carboxylic acid] | > 10.00
14 | C[C@H]1C[C@@H](Oc2ccnc(COc3ccc(C#N)cn3)n2)CCN1Cc1nc2c(F)cc(C(=O)O)cc2n1C[C@@H]1CCO1 [Compound 604, 2-{[(2S,4S)-4-[(2-{[(5-cyanopyridin-2-yl)oxy]methyl}pyrimidin-4-yl)oxy]-2-methylpiperidin-1-yl]methyl}-4-fluoro-1-{[(2S)-oxetan-2-yl]methyl}-1H-1,3-benzodiazole-6-carboxylic acid] | 9.00 to 10.00
15 | O=C(O)c1cc(F)c2nc(CN3CCC(Oc4ccnc(COc5ncc(Cl)cc5F)n4)CC3)n(C[C@@H]3CCO3)c2c1 [Compound 605, 2-({4-[(2-{[(5-Chloro-3-fluoropyridin-2-yl)oxy]methyl}pyrimidin-4-yl)oxy]piperidin-1-yl}methyl)-4-fluoro-1-{[(2S)-oxetan-2-yl]methyl}-1H-1,3-benzodiazole-6-carboxylic acid] | > 10.00
16 | C[C@H]1C[C@@H](Oc2ccnc(COc3ncc(F)cc3F)n2)CCN1Cc1nc2c(F)cc(C(=O)O)cc2n1C[C@@H]1CCO1 [Compound 606, 2-(((2S,4S)-4-((2-(((3,5-difluoropyridin-2-yl)oxy)methyl)pyrimidin-4-yl)oxy)-2-methylpiperidin-1-yl)methyl)-4-fluoro-1-(((S)-oxetan-2-yl)methyl)-1H-benzo[d]imidazole-6-carboxylic acid] | > 10.00
17 | C[C@H]1C[C@@H](Oc2ccnc(COc3ncc(C#N)cc3F)n2)CCN1Cc1nc2c(F)cc(C(=O)O)cc2n1C[C@@H]1CCO1 [Compound 607, 2-{[(2S,4S)-4-[(2-{[(5-Cyano-3-fluoropyridin-2-yl)oxy]methyl}pyrimidin-4-yl)oxy]-2-methylpiperidin-1-yl]methyl}-4-fluoro-1-[(oxetan-2-yl)methyl]-1H-1,3-benzodiazole-6-carboxylic acid] | > 10.00
18 | CC[C@H]1C[C@@H](Oc2ccnc(COc3ncc(Cl)cc3F)n2)CCN1Cc1nc2ccc(C(=O)O)cc2n1C[C@@H]1CCO1 [Compound 608, 2-{[(2S,4S)-4-[(2-{[(5-Chloro-3-fluoropyridin-2-yl)oxy]methyl}pyrimidin-4-yl)oxy]-2-ethylpiperidin-1-yl]methyl}-1-[(oxetan-2-yl)methyl]-1H-1,3-benzodiazole-6-carboxylic acid] | 9.00 to 10.00
19 | CC[C@@H]1C[C@H](Oc2ccnc(COc3ncc(Cl)cc3F)n2)CCN1Cc1nc2ccc(C(=O)O)cc2n1C[C@@H]1CCO1 [Compound 609, 2-{[(2R,4R)-4-[(2-{[(5-Chloro-3-fluoropyridin-2-yl)oxy]methyl}pyrimidin-4-yl)oxy]-2-ethylpiperidin-1-yl]methyl}-1-[(oxetan-2-yl)methyl]-1H-1,3-benzodiazole-6-carboxylic acid] | 7.00 to 8.00
20 | C[C@H]1C[C@@H](Oc2ccnc(COc3ccc(F)cc3F)n2)CCN1Cc1nc2ccc(C(=O)O)cc2n1C[C@H]1CCS1(=O)=O [Compound 610, 2-(((2S,4S)-4-((2-((2,4-difluorophenoxy)methyl)pyrimidin-4-yl)oxy)-2-methylpiperidin-1-yl)methyl)-1-(((R)-1,1-dioxidothietan-2-yl)methyl)-1H-benzo[d]imidazole-6-carboxylic acid] | 9.00 to 10.00
21 | C[C@H]1C[C@@H](Oc2ccnc(COc3ccc(F)cc3F)n2)CCN1Cc1nc2ccc(C(=O)O)cc2n1C[C@@H]1CCS1(=O)=O [Compound 611, 2-(((2S,4S)-4-((2-((2,4-difluorophenoxy)methyl)pyrimidin-4-yl)oxy)-2-methylpiperidin-1-yl)methyl)-1-(((S)-1,1-dioxidothietan-2-yl)methyl)-1H-benzo[d]imidazole-6-carboxylic acid] | 9.00 to 10.00
